From patent US7332596B1 (priority 1999, dated 2008)
Where no end group is shown, it is not given here.

Legend:
[1] = tested on: Fusarium culmorum
[2] = tested on: Phytophthora infestans
[3] = Freshly isolated potato intercellular wash fluid (pIWF); details: Russet Burbank potato, up to 5 minutes
[4] = tested on: S. nodorum

Row | Compound | IC50 [1] | IC50 [2] | cleaved bond [3] | also measured
1 | CSCC[C@H](N)C(=O)N[C@@H](CCCNC(=N)N)C(=O)N[C@@H](C)C(=O)N[C@@H](CCCCN)C(=O)N[C@@H](Cc1c[nH]c2ccccc12)C(=O)N[C@@H](CCCNC(=N)N)C(=O)N[C@@H](CCCCN)C(=O)N[C@@H](CCCCN)C(=O)N[C@@H](CCCNC(=N)N)C(=O)N[C@H](C(=O)N[C@@H](CCCNC(=N)N)C(=O)N[C@@H](CCCNC(=N)N)C(=O)N[C@@H](CC(C)C)C(=O)N[C@@H](CCCCN)C(=O)N[C@@H](CCCNC(=N)N)C(=O)N[C@@H](CCCCN)C(=O)N[C@@H](CCCNC(=N)N)C(=O)N[C@@H](CCCNC(=N)N)C(=O)N[C@@H](CCCCN)C(=O)N[C@H](C(=O)N[C@@H](CCCNC(=N)N)C(=O)N[C@@H](C)C(=O)N[C@@H](CCCNC(=N)N)C(=O)N[C@@H](CO)C(=O)N[C@@H](CCCCN)C(=O)O)C(C)C)[C@@H](C)O [YL41] | 1200 nM | 4500 nM | – | –
2 | MAVPKKRTSISKKRIRKKIWKRKGYWTSLKAFSLGKSLSTGNSKSFFVQQNK [BL32] | 1600 nM | 6600 nM | – | –
3 | MKIRASIRRISGKSRPIRRRKRVMIISSNPRHKQKQG [BL36] | 2300 nM | 3400 nM | – | –
4 | MNSHRLPGKGRRMGPIMGHTMHYRRMIITLQSSYSIPPLRKKRT [SL23] | 2500 nM | 7700 nM | – | –
5 | VKVGLATKAERASRQQRKQRKNRQKTLMGTAKVKGAKAKK | – | – | A-T and L-M and M-G and A-K | –
6 | VKVGLATKAERASRQQRKQRKNRQKTLMGTAQVKGAKAKK | – | – | A-T and L-M and M-G and A-Q | –
7 | VKVGLATKAERASRQQRKQRKNRQKTLRGTAKVKGAKAKK | – | – | A-T and L-R and R-G and A-K | –
8 | VKVGLATKAERASRQQRKQRKNRQKTLRGTAKVKGAKAKK [Synthetic FCWP1] | – | – | – | IC50 F. culmorum High salt [1]: 85 µg/mL; IC50 F. culmorum Low salt [1]: 6 µg/mL; IC50 P. infestans High salt [2]: 20 µg/mL; IC50 P. infestans Low salt [2]: 10 µg/mL; IC50 S. nodorum High salt [4]: >170 µg/mL; IC50 S. nodorum Low salt [4]: 22 µg/mL
9 | VKVGLATKAERASRQQRKQRKNRQKTLRGTAQVKGAKAKK | – | – | A-T and L-R and R-G and A-Q | –
10 | VKVGLATKAERASRQQRKQRKNRQKTLRGTRKVKGAKAKK | – | – | A-T and L-R and R-G and R-K | –
11 | VKVGLATKAERASRQQRKQRKNRQKTRRGTAKVKGAKAKK | – | – | R-R and G-T and A-K and A-T | –
12 | VKVGLATKAERASRQQRKQRKNRQKTRRGTRKVKGAKAKK | – | – | A-T and T-R and G-T and R-K | –
